Source: ChEMBL document CHEMBL5226328, “Rational Multitargeted Drug Design Strategy from the Perspective of a Medicinal Chemist” (J Med Chem, 2021)

Experiments:
[1] = biological target: Sodium-dependent serotonin transporter (Homo sapiens, UniProt P31645)
Description: Inhibition of SERT (unknown origin)

Acetylcholinesterase = Acetylcholinesterase (Homo sapiens, UniProt P22303)
Description: Inhibition of AChE (unknown origin)

Thromboxane-A synthase = biological target: T1, Thromboxane-A synthase (Homo sapiens, UniProt P24557)
T1 sequence (P24557 whole entry): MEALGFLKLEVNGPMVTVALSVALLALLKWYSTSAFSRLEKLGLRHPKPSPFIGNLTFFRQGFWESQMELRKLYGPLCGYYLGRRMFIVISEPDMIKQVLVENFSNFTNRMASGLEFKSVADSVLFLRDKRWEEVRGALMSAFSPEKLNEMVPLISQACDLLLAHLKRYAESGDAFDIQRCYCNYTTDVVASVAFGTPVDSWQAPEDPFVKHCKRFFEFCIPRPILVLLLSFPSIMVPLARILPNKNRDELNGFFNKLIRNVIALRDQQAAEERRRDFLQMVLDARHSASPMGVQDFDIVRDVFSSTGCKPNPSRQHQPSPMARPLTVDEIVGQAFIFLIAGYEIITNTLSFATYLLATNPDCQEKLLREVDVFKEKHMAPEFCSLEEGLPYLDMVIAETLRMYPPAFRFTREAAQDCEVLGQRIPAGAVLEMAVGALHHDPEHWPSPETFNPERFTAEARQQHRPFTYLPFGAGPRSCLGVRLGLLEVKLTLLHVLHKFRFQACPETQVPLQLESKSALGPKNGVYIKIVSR
Description: Inhibition of TXA2 synthetase (unknown origin)

Vitamin D3 receptor = biological target: T2, Vitamin D3 receptor (Homo sapiens, UniProt P11473)
T2 sequence (P11473 whole entry): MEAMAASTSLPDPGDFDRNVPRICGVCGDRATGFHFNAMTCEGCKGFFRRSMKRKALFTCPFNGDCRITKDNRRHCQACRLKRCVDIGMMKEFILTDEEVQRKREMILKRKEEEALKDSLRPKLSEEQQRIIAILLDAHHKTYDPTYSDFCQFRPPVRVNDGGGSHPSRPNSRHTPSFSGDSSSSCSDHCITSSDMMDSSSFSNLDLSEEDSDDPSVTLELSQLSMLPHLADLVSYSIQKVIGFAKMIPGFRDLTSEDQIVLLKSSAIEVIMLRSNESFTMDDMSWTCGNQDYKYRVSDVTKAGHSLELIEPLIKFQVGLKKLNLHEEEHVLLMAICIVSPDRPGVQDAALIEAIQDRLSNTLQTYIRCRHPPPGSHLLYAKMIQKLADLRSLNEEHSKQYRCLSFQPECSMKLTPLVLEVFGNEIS
Description: Inhibition of VDR (unknown origin)

[2] = biological target: Voltage-dependent calcium channel subunit alpha-2/delta-1 (Homo sapiens, UniProt P54289)
Voltage-dependent calcium channel subunit alpha-2/delta-1, sequence (P54289 25-956 limits assumed): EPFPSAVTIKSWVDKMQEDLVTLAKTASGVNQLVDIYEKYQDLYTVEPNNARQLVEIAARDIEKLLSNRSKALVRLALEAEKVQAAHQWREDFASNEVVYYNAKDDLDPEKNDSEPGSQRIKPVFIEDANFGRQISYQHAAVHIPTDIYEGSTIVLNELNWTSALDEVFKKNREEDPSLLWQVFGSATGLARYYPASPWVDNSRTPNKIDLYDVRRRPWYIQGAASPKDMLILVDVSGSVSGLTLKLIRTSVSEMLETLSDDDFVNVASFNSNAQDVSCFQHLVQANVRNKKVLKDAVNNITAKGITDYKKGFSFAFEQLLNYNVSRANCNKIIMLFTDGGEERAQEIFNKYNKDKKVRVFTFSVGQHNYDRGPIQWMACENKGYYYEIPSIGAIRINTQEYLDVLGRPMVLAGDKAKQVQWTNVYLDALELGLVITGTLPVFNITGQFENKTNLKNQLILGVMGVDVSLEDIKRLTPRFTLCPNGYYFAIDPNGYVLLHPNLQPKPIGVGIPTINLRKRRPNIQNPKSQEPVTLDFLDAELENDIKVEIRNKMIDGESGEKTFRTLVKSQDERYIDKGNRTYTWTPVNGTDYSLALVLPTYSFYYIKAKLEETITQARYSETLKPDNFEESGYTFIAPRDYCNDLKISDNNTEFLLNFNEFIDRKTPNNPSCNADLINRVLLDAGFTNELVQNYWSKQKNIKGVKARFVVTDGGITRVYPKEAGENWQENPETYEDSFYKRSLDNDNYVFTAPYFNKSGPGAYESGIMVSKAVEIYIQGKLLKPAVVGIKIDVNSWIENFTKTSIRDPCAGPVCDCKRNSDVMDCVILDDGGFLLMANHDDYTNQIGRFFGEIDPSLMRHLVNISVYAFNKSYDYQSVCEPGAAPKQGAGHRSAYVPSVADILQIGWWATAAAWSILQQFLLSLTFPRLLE
Voltage-dependent calcium channel subunit alpha-2/delta-1, sequence (P54289 957-1103 limits assumed): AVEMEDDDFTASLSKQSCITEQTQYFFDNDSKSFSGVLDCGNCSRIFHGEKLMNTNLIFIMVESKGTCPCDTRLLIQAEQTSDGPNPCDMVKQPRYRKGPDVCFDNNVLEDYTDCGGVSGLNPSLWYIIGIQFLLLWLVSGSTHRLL
Description: Binding affinity to calcium channel alpha2delta1 (unknown origin)

[3] = biological target: Amyloid-beta precursor protein (Homo sapiens, UniProt P05067)
Amyloid-beta precursor protein, sequence (P05067 whole entry): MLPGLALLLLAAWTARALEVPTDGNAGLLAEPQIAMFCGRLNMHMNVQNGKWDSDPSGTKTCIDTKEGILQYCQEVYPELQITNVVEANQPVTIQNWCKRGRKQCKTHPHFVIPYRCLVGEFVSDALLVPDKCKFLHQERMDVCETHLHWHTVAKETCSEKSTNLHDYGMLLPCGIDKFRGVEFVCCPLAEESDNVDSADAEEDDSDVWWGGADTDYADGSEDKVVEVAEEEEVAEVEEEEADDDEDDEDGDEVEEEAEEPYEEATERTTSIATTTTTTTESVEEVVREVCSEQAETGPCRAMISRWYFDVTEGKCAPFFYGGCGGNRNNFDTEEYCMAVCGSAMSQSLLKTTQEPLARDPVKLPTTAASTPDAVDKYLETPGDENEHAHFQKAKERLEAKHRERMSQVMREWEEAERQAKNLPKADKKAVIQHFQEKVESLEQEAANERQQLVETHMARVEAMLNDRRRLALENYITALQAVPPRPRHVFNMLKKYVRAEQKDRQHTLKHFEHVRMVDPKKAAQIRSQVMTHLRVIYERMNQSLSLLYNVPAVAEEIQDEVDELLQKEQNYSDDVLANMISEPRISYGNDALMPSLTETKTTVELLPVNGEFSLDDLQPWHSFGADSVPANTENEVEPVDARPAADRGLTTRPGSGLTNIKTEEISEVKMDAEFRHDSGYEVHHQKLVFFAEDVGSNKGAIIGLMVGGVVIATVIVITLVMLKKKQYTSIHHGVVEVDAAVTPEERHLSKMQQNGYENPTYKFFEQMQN
Description: Inhibition of amyloid beta (1 to 42 ) (unknown origin) self aggregation

Sodium-dependent serotonin transporter, sequence (P31645 whole entry): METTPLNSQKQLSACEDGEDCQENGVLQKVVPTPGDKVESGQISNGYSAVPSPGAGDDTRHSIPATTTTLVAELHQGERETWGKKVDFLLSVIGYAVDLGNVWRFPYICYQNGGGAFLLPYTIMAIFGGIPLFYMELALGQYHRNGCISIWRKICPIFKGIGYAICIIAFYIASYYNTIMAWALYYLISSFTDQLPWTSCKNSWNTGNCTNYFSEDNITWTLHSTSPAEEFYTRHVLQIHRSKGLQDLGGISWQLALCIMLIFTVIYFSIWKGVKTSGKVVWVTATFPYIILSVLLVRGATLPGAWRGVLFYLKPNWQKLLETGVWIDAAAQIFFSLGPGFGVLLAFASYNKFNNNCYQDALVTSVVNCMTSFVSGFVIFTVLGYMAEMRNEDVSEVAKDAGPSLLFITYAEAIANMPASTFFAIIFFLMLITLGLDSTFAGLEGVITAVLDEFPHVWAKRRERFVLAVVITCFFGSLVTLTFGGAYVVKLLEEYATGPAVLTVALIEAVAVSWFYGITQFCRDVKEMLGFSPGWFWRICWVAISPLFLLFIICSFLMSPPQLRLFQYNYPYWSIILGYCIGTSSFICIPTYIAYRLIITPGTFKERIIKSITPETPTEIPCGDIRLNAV
Acetylcholinesterase, sequence (P22303 whole entry): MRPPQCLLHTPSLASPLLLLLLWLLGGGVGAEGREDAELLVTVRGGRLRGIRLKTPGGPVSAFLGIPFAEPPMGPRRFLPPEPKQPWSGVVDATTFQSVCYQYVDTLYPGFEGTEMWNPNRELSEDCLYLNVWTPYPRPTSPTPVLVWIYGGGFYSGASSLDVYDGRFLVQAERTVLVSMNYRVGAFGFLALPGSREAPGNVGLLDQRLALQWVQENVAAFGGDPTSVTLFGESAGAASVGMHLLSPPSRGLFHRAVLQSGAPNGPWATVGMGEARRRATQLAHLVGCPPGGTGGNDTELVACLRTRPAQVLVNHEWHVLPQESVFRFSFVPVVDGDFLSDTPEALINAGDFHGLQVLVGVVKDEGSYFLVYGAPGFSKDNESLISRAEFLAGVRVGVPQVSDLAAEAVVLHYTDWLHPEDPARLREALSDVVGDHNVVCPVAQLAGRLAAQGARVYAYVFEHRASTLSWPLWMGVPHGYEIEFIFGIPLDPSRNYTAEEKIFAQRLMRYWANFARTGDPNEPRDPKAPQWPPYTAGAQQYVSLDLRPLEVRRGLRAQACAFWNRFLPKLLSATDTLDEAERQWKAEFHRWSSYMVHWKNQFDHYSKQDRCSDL

CCN(C)C(=O)Oc1ccc2c(c1)C=CC(C)N(C)C2CCOc1ccc([N+](=O)[O-])cc1 (stereo not given)
IC50 [1]: 6 nM
IC50 (Acetylcholinesterase): 14 nM

CCN(C)C(=O)Oc1ccc(C(CCOc2ccc([N+](=O)[O-])cc2)NC)cc1 (stereo not given)
IC50 [1]: 42 nM
IC50 (Acetylcholinesterase): 101 nM

CCOC(=O)CCCCO/N=C(/c1cccnc1)c1cccc(CNS(=O)(=O)c2ccc(Cn3c(C)nc4ccccc43)cc2)c1
IC50 (Thromboxane-A synthase): 4.7 nM

CC(/C=C/C(=O)NO)=C\C(C)C1CCC2/C(=C/C=C3CC(O)CC(O)C3)CCCC21C (stereo not given)
IC50 (Vitamin D3 receptor): 87 nM

CCNc1ncc2c(n1)N1CCCC1CN(c1cccc(-c3noc(C)n3)c1)C2=O (stereo not given)
Ki [2]: 11 nM

Cc1c(O)c(=O)ccn1-c1ccc(OCCCN2CCCC2)cc1
IC50 [3]: 2850 nM

CCN(CC)CCCOc1ccc(-c2oc3ccccc3c2C(=O)c2ccc(C)cc2)cc1
IC50 [3]: 56000 nM

O=C(O)CCCCO/N=C(/c1cccnc1)c1cccc(C(F)(F)F)c1 [RIDOGREL]
IC50 (Thromboxane-A synthase): 500 nM
